Experimental data taken from patent US20080312192A1, “Diaryl Urea Derivatives in the Treatment of Protein Kinase Dependent Diseases” (priority 2003, published 2008).

Biological target: T1, RET (Homo sapiens, UniProt P07949)
T1 construct: expresses the amino acid region 658-1072 (Swiss prot No. Q9BTB0); made in house; host or cells: Sf9 insect cells (baculovirus, vector pFB-GSTX3)
T1 sequence (P07949 658-1072 isoform P07949-2): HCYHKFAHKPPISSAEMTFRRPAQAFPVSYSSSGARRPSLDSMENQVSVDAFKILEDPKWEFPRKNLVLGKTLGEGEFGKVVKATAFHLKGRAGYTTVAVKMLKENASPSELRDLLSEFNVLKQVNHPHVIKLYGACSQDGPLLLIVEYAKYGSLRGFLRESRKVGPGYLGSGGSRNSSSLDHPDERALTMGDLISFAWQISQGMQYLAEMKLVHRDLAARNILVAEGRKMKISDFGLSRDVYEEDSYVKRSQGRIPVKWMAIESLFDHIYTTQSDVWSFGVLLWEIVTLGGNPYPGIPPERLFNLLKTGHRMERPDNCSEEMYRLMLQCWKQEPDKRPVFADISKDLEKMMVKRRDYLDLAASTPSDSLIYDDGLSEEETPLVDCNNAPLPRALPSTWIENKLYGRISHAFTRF
Experiment: RET kinase inhibition (33P incorporation into poly(Glu,Tyr), GST-wtRET or GST-RET-Men2B)
Assay type: biochemical
Method: RET kinase inhibition is determined as follows:
The coding sequence for the cytoplasmic domain of wtRET is amplified by PCR from a cDNA library using specific primers. RET-Men2B is generated through site-directed mutagenesis resulting in the M918T mutation. The amplified DNA fragments and the pFB-GSTX3 vector are made compatible for ligation by digestion with SalI and KpnI. Ligation of these DNA fragments results in the baculovirus donor plasmids […] and pFB-GX3-RET-Men2B, respectively.
Production of virus: The baculovirus donor plasmids containing the kinase domains are transfected into the DH10Bac cell line (GIBCO) and the transfected cells are plated on selective agar plates. Colonies without insertion of the fusion sequence into the viral genome (carried by the bacteria) are blue. Single, white colonies are picked and viral DNA (bacmid) is isolated from the bacteria by standard plasmid purification procedures. Sf9 cells or Sf21 cells (American Type Culture Collection) are then transfected in 25 cm^2 flasks with the viral DNA using Cellfectin reagent.
Protein expression in Sf9 cells: Virus-containing media is collected from the transfected cell culture and used for infection to increase its titer. Virus-containing media obtained after two rounds of infection is used for large-scale protein expression. For large-scale protein expression 100 cm^2 round tissue culture plates are seeded with 5×10^7 cells/plate and infected with 1 mL of virus-containing media (approximately 5 MOIs). After 3 days, the cells are scraped off the plate and centrifuged at 500 rpm for 5 minutes. Cell pellets from 10-20, 100 cm^2 plates are re-suspended in 50 mL of ice-cold lysis buffer (25 mM Tris-HCl, pH 7.5, 2 mM EDTA, 1% NP-40, 1 mM DTT, 1 mM PMSF). The cells are stirred on ice for 15 minutes and then centrifuged at 5,000 rpms for 20 minutes.
Purification of GST-tagged proteins: The centrifuged cell lysate is loaded onto a 2 mL glutathione-sepharose column (Pharmacia) and washed 3× with 10 mL of 25 mM Tris-HCl, pH 7.5, 2 mM EDTA, 1 mM DTT, 200 mM NaCl. The GST-tagged proteins are then eluted by 10 applications (1 mL each) of 25 mM Tris-HCl, pH 7.5, 10 mM reduced-glutathione, 100 mM NaCl, 1 mM DTT, 10% glycerol and stored at −70° C.
Measure of enzyme activity: Tyrosine protein kinase assays with either purified GST-wtRET or GST-RET-Men2B protein are carried out in a final volume of 30 μL containing 15 ng of either GST-RET or GST-RET-Men2B protein, 20 mM Tris-HCl, pH 7.5, 1 mM MnCl2, 10 mM MgCl2, 1 mM DTT, 3 μg/mL poly(Glu, Tyr) 4:1, 1% DMSO, 2.0 μM ATP (γ-[^33P]-ATP 0.1 μCi). The activity is assayed in the presence or absence of inhibitors, by measuring the incorporation of ^33P from [γ^33P] ATP into poly(Glu, Tyr) 4:1. […] Subsequently, 40 μL of the reaction mixture are transferred onto Immobilon-PVDF membrane (Millipore) previously soaked for 5 minutes with methanol, rinsed with water, then soaked for 5 minutes with 0.5% H3PO4 and mounted on vacuum manifold with disconnected vacuum source. After spotting all samples, vacuum is connected and each well rinsed with 200 μL 0.5% H3PO4. Membranes are removed and washed 4× on a shaker with 1.0% H3PO4, once with ethanol. Membranes are counted after drying at ambient temperature, mounting in Packard TopCount 96-well frame, and addition of 10 μl/well of Microscint™ (Packard). […] One unit of protein kinase activity is defined as 1 nmole of ^33P transferred from [γ^33P] ATP to the substrate protein/minute/mg of protein at 37° C.

Row | IC50 | SMILES
1 | 83 nM | Nc1cc(Oc2ccc(NC(=O)Nc3cc(CN4CCC4)cc(C(F)(F)F)c3)cc2)ncn1 [Example 4, N-[4-(6-Amino-pyrimidin-4-yloxy)-phenyl]-N′-(3-azetidin-1-ylmethyl-5-trifluoromethyl-phenyl)-urea]
2 | 960 nM | CNc1cc(Oc2ccc(NC(=O)Nc3cc(CN4CCN(C(C)C)CC4)cc(C(F)(F)F)c3)cc2)ncn1 [Example 6, N-[4-(6-Methylamino-pyrimidin-4-yloxy)-phenyl]-N′-[3-(4-isopropylpiperazin-1-ylmethyl)-5-trifluoromethyl-phenyl]-urea]
3 | 550 nM | CC(C)N1CCN(Cc2ccc(NC(=O)Nc3ccc(Oc4cc(N)ncn4)cc3)cc2C(F)(F)F)CC1 [Example 19, N-[4-(6-Amino-pyrimidin-4-yloxy)-phenyl]-N′-[4-(4-isopropylpiperazin-1-ylmethyl)-3-trifluoromethyl-phenyl]-urea]
4 | 560 nM | CC(C)(C)N1CCN(Cc2ccc(NC(=O)Nc3ccc(Oc4ccnc(N)n4)cc3)cc2C(F)(F)F)CC1 [Example 50]
5 | 850 nM | Cc1ncn(Cc2ccc(NC(=O)Nc3ccc(Oc4ccnc(N)n4)cc3)cc2C(F)(F)F)c1C [Example 51a.1, 1-[4-(2-Amino-pyrimidin-4-yloxy)-phenyl]-3-(4-(4,5-dimethyl-imidazol-1-ylmethyl)-3-trifluoromethyl-phenyl]-urea]
6 | 180 nM | CN1CCN(Cc2ccc(NC(=O)Nc3ccc(Oc4ccnc(N)n4)cc3)cc2C(F)(F)F)CC1 [Example 52a, 1-[4-(2-amino-pyrimidin-4-yloxy)-phenyl]-3-[4-(4-methylpiperazin-1-ylmethyl)-3-trifluoromethyl-phenyl]-urea]
7 | 310 nM | CCN1CCN(Cc2ccc(NC(=O)Nc3ccc(Oc4ccnc(N)n4)cc3)cc2C(F)(F)F)CC1 [Example 52c, 1-[4-(2-Amino-pyrimidin-4-yloxy)-phenyl]-3-[4-(4-ethyl-piperazin-1-ylmethyl)-3-trifluoromethyl-phenyl]-urea]
8 | 450 nM | CNc1nccc(Oc2ccc(NC(=O)Nc3cc(N4CCN(C)CC4)cc(C(F)(F)F)c3)cc2)n1 [Example 53b, 1-[4-(2-Methylamino-pyrimidin-4-yloxy)-phenyl]-3-[3-(4-methyl-piperazin-1-yl)-5-trifluoromethyl-phenyl]-urea]
9 | 450 nM | CNc1nccc(Oc2ccc(NC(=O)Nc3ccc(N4CCN(C)CC4)c(C(F)(F)F)c3)cc2)n1 [Example 53d, 1-[4-(2-Methylamino-pyrimidin-4-yloxy)-phenyl]-3-[4-(4-methyl-piperazin-1-yl)-3-trifluoromethyl-phenyl]-urea]
